Source: ChEMBL document CHEMBL1201862, “PubChem BioAssay data set” (2004)
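Each compound was tested at five concentrations against cells in 96-well plates for 48 hours. At the GI50, growth is halved.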 Calls of active or inactive are those of the source. No stated cut-off is given here; in the data, active = GI50 up to about 1.1 µM and inactive = higher.

Legend:
Experiment in all cases: DTP human tumour cell line panel, 48 h
HOP-62 = test system: HOP-62
NCI-H23 = test system: NCI-H23
CAKI-1 = test system: CAKI-1
RXF 393 = test system: RXF 393
UACC-62 = test system: UACC-62
NCI-H522 = test system: NCI-H522
SNB-75 = test system: SNB-75
OVCAR-4 = test system: OVCAR-4
SK-MEL-28 = test system: SK-MEL-28
CCRF-CEM = test system: CCRF-CEM
NCI-H226 = test system: NCI-H226
DMS-114 = test system: DMS-114
M19-MEL = test system: M19-MEL
UO-31 = test system: UO-31
DLD-1 = test system: DLD-1
TK-10 = test system: TK-10
HCC 2998 = test system: HCC 2998
DMS-273 = test system: DMS-273
SNB-78 = test system: SNB-78
HT-29 = test system: HT-29
ACHN = test system: ACHN
HCT-116 = test system: HCT-116
HCT-15 = test system: HCT-15
OVCAR-8 = test system: OVCAR-8
OVCAR-5 = test system: OVCAR-5
RPMI-8226 = test system: RPMI-8226
SW-620 = test system: SW-620
EKVX = test system: EKVX
Malme-3M = test system: Malme-3M
SR = test system: SR
SF-295 = test system: SF-295
COLO 205 = test system: COLO 205
U-251 = test system: U-251
SN12C = test system: SN12C
SK-MEL-5 = test system: SK-MEL-5
SK-MEL-2 = test system: SK-MEL-2
IGROV-1 = test system: IGROV-1
SF-268 = test system: SF-268
SF-539 = test system: SF-539
LXFL 529 = test system: LXFL 529
NCI-H460 = test system: NCI-H460
KM12 = test system: KM12
SNB-19 = test system: SNB-19
786-0 = test system: 786-0
OVCAR-3 = test system: OVCAR-3
UACC-257 = test system: UACC-257
A498 = test system: A498
HOP-18 = test system: HOP-18
A549 = test system: A549
K562 = test system: K562
MOLT-4 = test system: MOLT-4
KM-20L2 = test system: KM-20L2
M14 = test system: M14
SK-OV-3 = test system: SK-OV-3
LOX IMVI = test system: LOX IMVI
HL-60 = test system: HL-60
XF498 = test system: XF498
HOP-92 = test system: HOP-92

CC(=O)Nc1ccc(C2[C@H]3C(=O)N(c4ccc(Cc5ccc(N6C(=O)[C@@H]7ON(c8ccccc8)C(c8ccc(NC(C)=O)cc8)[C@@H]7C6=O)cc5)cc4)C(=O)[C@H]3ON2c2ccccc2)cc1 (some centres undefined)
GI50 (HOP-62): > 100 µM (inactive) | GI50 (NCI-H23): > 100 µM (inactive) | GI50 (CAKI-1): 98.2 µM (inactive) | GI50 (RXF 393): > 100 µM (inactive) | GI50 (UACC-62): 70.8 µM (inactive) | GI50 (NCI-H522): > 100 µM (inactive) | GI50 (SNB-75): > 100 µM (inactive) | GI50 (OVCAR-4): > 100 µM (inactive) | GI50 (SK-MEL-28): > 100 µM (inactive) | GI50 (CCRF-CEM): > 100 µM (inactive) | GI50 (NCI-H226): > 100 µM (inactive) | GI50 (DMS-114): > 100 µM (inactive) | GI50 (M19-MEL): 44.2 µM (inactive) | GI50 (UO-31): > 100 µM (inactive) | GI50 (DLD-1): > 100 µM (inactive) | GI50 (TK-10): > 100 µM (inactive) | GI50 (HCC 2998): > 100 µM (inactive) | GI50 (DMS-273): > 100 µM (inactive) | GI50 (SNB-78): > 100 µM (inactive) | GI50 (HT-29): > 100 µM (inactive) | GI50 (ACHN): > 100 µM (inactive) | GI50 (HCT-116): > 100 µM (inactive) | GI50 (HCT-15): > 100 µM | GI50 (OVCAR-8): > 100 µM (inactive) | GI50 (OVCAR-5): > 100 µM (inactive) | GI50 (RPMI-8226): > 100 µM (inactive) | GI50 (SW-620): > 100 µM (inactive) | GI50 (EKVX): > 100 µM (inactive) | GI50 (Malme-3M): > 100 µM (inactive) | GI50 (SR): > 100 µM (inactive) | GI50 (SF-295): > 100 µM (inactive) | GI50 (COLO 205): 74.6 µM (inactive) | GI50 (U-251): > 100 µM (inactive) | GI50 (SN12C): > 100 µM (inactive) | GI50 (SK-MEL-5): 32.6 µM (inactive) | GI50 (SK-MEL-2): > 100 µM (inactive) | GI50 (IGROV-1): > 100 µM (inactive) | GI50 (SF-268): > 100 µM (inactive) | GI50 (SF-539): > 100 µM (inactive) | GI50 (LXFL 529): > 100 µM (inactive) | GI50 (NCI-H460): > 100 µM (inactive) | GI50 (KM12): > 100 µM (inactive) | GI50 (SNB-19): > 100 µM (inactive) | GI50 (786-0): > 100 µM (inactive) | GI50 (OVCAR-3): > 100 µM (inactive) | GI50 (UACC-257): > 100 µM (inactive) | GI50 (A498): > 100 µM (inactive) | GI50 (HOP-18): > 100 µM (inactive) | GI50 (A549): > 100 µM (inactive) | GI50 (K562): > 100 µM (inactive) | GI50 (MOLT-4): > 100 µM (inactive) | GI50 (KM-20L2): > 100 µM (inactive) | GI50 (M14): 25.2 µM (inactive) | GI50 (SK-OV-3): > 100 µM (inactive) | GI50 (LOX IMVI): > 100 µM (inactive) | GI50 (HL-60): > 100 µM (inactive)

COC(=O)/C=C1/CCC(C(=O)OC)N1 (centres undefined)
GI50 (HOP-62): > 100 µM (inactive) | GI50 (NCI-H23): > 100 µM (inactive) | GI50 (CAKI-1): > 100 µM (inactive) | GI50 (RXF 393): > 100 µM (inactive) | GI50 (UACC-62): > 100 µM (inactive) | GI50 (SNB-75): > 100 µM (inactive) | GI50 (OVCAR-4): > 100 µM (inactive) | GI50 (SK-MEL-28): > 100 µM (inactive) | GI50 (XF498): > 100 µM (inactive) | GI50 (CCRF-CEM): > 100 µM (inactive) | GI50 (DMS-114): > 100 µM (inactive) | GI50 (M19-MEL): > 100 µM (inactive) | GI50 (HOP-92): > 100 µM (inactive) | GI50 (UO-31): > 100 µM (inactive) | GI50 (DLD-1): > 100 µM (inactive) | GI50 (TK-10): > 100 µM (inactive) | GI50 (HCC 2998): > 100 µM (inactive) | GI50 (DMS-273): > 100 µM (inactive) | GI50 (SNB-78): > 100 µM (inactive) | GI50 (ACHN): > 100 µM (inactive) | GI50 (HCT-116): > 100 µM (inactive) | GI50 (HCT-15): > 100 µM | GI50 (OVCAR-8): > 100 µM (inactive) | GI50 (RPMI-8226): > 100 µM (inactive) | GI50 (SW-620): > 100 µM (inactive) | GI50 (EKVX): > 100 µM (inactive) | GI50 (SR): > 100 µM (inactive) | GI50 (SF-295): > 100 µM (inactive) | GI50 (COLO 205): > 100 µM (inactive) | GI50 (U-251): > 100 µM (inactive) | GI50 (SN12C): > 100 µM (inactive) | GI50 (SK-MEL-5): > 100 µM (inactive) | GI50 (SK-MEL-2): > 100 µM (inactive) | GI50 (IGROV-1): > 100 µM (inactive) | GI50 (SF-268): > 100 µM (inactive) | GI50 (SF-539): > 100 µM (inactive) | GI50 (LXFL 529): > 100 µM (inactive) | GI50 (NCI-H460): > 100 µM (inactive) | GI50 (KM12): > 100 µM (inactive) | GI50 (SNB-19): > 100 µM (inactive) | GI50 (786-0): > 100 µM (inactive) | GI50 (OVCAR-3): > 100 µM (inactive) | GI50 (UACC-257): > 100 µM (inactive) | GI50 (A498): > 100 µM (inactive) | GI50 (A549): > 100 µM (inactive) | GI50 (K562): > 100 µM (inactive) | GI50 (MOLT-4): > 100 µM (inactive) | GI50 (KM-20L2): > 100 µM (inactive) | GI50 (M14): > 100 µM (inactive) | GI50 (SK-OV-3): > 100 µM (inactive) | GI50 (LOX IMVI): > 100 µM (inactive) | GI50 (HL-60): > 100 µM (inactive)

C=CCn1c(=S)sc2c(C(=O)OCC)c3c(C)cc(C)cn3c2c1=O
GI50 (HOP-62): > 100 µM (inactive) | GI50 (NCI-H23): > 100 µM (inactive) | GI50 (CAKI-1): > 100 µM (inactive) | GI50 (RXF 393): > 100 µM (inactive) | GI50 (UACC-62): > 100 µM (inactive) | GI50 (NCI-H522): 65.6 µM (inactive) | GI50 (SNB-75): 45.4 µM (inactive) | GI50 (SK-MEL-28): > 100 µM (inactive) | GI50 (CCRF-CEM): > 100 µM (inactive) | GI50 (NCI-H226): > 100 µM (inactive) | GI50 (M19-MEL): > 100 µM (inactive) | GI50 (UO-31): > 100 µM (inactive) | GI50 (DLD-1): > 100 µM (inactive) | GI50 (TK-10): > 100 µM (inactive) | GI50 (HCC 2998): > 100 µM (inactive) | GI50 (DMS-273): > 100 µM (inactive) | GI50 (SNB-78): > 100 µM (inactive) | GI50 (HT-29): > 100 µM (inactive) | GI50 (ACHN): > 100 µM (inactive) | GI50 (HCT-116): > 100 µM (inactive) | GI50 (HCT-15): > 100 µM | GI50 (OVCAR-8): > 100 µM (inactive) | GI50 (OVCAR-5): > 100 µM (inactive) | GI50 (RPMI-8226): > 100 µM (inactive) | GI50 (SW-620): > 100 µM (inactive) | GI50 (EKVX): > 100 µM (inactive) | GI50 (Malme-3M): > 100 µM (inactive) | GI50 (SR): > 100 µM (inactive) | GI50 (SF-295): 86.7 µM (inactive) | GI50 (COLO 205): > 100 µM (inactive) | GI50 (U-251): 75.9 µM (inactive) | GI50 (SN12C): > 100 µM (inactive) | GI50 (SK-MEL-5): > 100 µM (inactive) | GI50 (SK-MEL-2): > 100 µM (inactive) | GI50 (IGROV-1): > 100 µM (inactive) | GI50 (SF-268): 67.5 µM (inactive) | GI50 (SF-539): 80.5 µM (inactive) | GI50 (LXFL 529): > 100 µM (inactive) | GI50 (NCI-H460): > 100 µM (inactive) | GI50 (SNB-19): > 100 µM (inactive) | GI50 (786-0): 61.1 µM (inactive) | GI50 (OVCAR-3): > 100 µM (inactive) | GI50 (UACC-257): > 100 µM (inactive) | GI50 (A549): > 100 µM (inactive) | GI50 (K562): > 100 µM (inactive) | GI50 (MOLT-4): > 100 µM (inactive) | GI50 (KM-20L2): > 100 µM (inactive) | GI50 (M14): > 100 µM (inactive) | GI50 (SK-OV-3): 90.8 µM (inactive) | GI50 (LOX IMVI): > 100 µM (inactive) | GI50 (HL-60): > 100 µM (inactive)
